Source: the kinase profiling compilation of Christmann-Franck et al. (2016)

Tests used:
Assay in all cases: radiometric filter-binding kinase assay
[1] = test system: AKT1 (human), P31749 [S473D]
CHEK2 (human) = CHEK2 (human) (UniProt O96017)
CSNK1D (human) = CSNK1D (human) (UniProt P48730)
CaMK1 (human) = CaMK1 (human) (UniProt Q14012)
DYRK1A (human) = DYRK1A (human) (UniProt Q13627)
DYRK3 (human) = DYRK3 (human) (UniProt O43781)
EPHB2 (human) = EPHB2 (human) (UniProt P29323)
IKBKB (human) = IKBKB (human) (UniProt O14920)
IKBKE (human) = IKBKE (human) (UniProt Q14164)
IRAK4 (human) = IRAK4 (human) (UniProt Q9NWZ3)
IRAK4 (human), sequence (Q9NWZ3 whole entry, looked up): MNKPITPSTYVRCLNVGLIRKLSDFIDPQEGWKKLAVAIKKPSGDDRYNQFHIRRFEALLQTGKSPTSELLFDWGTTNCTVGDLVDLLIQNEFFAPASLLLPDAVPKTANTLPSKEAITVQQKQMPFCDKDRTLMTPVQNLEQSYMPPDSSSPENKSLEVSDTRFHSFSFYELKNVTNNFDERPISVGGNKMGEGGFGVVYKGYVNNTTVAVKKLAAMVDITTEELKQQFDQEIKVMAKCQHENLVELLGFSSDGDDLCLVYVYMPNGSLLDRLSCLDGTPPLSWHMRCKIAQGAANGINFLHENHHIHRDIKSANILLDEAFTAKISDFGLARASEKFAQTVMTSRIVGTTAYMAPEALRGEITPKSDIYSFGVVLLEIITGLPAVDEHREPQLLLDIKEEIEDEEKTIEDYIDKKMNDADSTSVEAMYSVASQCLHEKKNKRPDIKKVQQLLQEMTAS

JAK2 JH1 JH2 (human) = JAK2 JH1 JH2 (human) (UniProt O60674)
MAP2K1 (human) = MAP2K1 (human) (UniProt Q02750)
MAP3K11 (human) = MAP3K11 (human) (UniProt Q16584)
MAPK14 (human) = MAPK14 (human) (UniProt Q16539)
MAPK3 (human) = MAPK3 (human) (UniProt P27361)
MAPK8 (human) = MAPK8 (human) (UniProt P45983)
MAPK8 (human), sequence (P45983 whole entry, looked up): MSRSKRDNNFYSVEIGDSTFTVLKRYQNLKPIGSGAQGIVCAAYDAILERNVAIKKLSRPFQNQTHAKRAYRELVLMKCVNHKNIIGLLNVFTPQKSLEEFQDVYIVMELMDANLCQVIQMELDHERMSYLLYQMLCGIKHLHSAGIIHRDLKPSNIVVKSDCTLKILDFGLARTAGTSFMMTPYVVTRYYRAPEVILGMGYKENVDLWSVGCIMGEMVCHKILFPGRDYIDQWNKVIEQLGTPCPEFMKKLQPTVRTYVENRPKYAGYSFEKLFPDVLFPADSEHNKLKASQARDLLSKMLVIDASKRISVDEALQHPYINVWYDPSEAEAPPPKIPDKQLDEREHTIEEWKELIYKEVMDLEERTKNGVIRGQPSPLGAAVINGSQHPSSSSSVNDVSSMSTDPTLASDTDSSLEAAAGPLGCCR

MAPK9 (human) = MAPK9 (human) (UniProt P45984)
MAPKAPK2 (human) = MAPKAPK2 (human) (UniProt P49137)
MAPKAPK2 (human), sequence (P49137 whole entry, looked up): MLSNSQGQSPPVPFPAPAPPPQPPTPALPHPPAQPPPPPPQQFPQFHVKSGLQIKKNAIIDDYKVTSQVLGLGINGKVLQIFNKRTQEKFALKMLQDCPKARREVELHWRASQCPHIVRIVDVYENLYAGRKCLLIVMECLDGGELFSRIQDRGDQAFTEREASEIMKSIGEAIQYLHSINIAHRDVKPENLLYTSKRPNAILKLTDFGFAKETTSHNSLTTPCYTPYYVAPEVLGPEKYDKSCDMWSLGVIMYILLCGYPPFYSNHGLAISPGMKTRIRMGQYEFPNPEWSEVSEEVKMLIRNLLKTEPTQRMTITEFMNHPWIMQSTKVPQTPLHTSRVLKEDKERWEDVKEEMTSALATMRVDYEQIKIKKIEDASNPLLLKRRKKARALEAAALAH

MARK1 (human) = MARK1 (human) (UniProt Q9P0L2)
MARK1 (human), sequence (Q9P0L2 whole entry, looked up): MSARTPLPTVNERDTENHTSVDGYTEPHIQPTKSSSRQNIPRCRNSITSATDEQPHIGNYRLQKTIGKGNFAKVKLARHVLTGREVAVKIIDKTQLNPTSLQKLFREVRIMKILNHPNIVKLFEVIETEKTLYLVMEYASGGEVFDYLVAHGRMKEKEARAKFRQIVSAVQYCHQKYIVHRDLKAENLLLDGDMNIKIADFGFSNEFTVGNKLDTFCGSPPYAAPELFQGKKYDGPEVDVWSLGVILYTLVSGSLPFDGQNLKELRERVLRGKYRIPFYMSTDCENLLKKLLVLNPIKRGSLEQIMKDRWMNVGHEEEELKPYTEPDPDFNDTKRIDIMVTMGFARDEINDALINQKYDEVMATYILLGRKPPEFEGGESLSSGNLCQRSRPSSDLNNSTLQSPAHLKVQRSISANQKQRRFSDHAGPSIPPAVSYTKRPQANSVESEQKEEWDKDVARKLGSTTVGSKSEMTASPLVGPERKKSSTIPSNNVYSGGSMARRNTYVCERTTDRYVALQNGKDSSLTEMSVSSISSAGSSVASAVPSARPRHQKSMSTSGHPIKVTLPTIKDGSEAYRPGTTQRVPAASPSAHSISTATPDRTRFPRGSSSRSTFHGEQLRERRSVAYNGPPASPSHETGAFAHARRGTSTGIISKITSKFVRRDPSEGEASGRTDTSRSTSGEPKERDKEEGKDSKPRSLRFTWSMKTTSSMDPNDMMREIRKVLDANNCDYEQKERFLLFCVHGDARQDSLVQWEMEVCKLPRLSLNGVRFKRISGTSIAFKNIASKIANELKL

MARK2 (human) = MARK2 (human) (UniProt Q7KZI7)
MARK3 (human) = MARK3 (human) (UniProt P27448)
MKNK1 (human) = MKNK1 (human) (UniProt Q9BUB5)
MKNK1 (human), sequence (Q9BUB5 whole entry, looked up): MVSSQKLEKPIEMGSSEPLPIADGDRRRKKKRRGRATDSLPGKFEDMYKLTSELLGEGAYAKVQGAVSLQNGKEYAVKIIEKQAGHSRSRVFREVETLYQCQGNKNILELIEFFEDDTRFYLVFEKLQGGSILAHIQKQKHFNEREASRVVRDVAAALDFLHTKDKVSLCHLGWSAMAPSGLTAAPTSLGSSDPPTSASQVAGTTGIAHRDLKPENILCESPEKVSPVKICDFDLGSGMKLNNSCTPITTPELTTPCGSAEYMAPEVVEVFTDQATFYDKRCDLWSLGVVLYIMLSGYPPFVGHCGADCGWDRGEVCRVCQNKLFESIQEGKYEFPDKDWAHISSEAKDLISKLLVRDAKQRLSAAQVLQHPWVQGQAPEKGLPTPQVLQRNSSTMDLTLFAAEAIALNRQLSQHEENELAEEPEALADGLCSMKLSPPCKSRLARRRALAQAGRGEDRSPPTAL

MKNK2 (human) = MKNK2 (human) (UniProt Q9HBH9)
NEK2 (human) = NEK2 (human) (UniProt P51955)
NEK2 (human), sequence (P51955 whole entry, looked up): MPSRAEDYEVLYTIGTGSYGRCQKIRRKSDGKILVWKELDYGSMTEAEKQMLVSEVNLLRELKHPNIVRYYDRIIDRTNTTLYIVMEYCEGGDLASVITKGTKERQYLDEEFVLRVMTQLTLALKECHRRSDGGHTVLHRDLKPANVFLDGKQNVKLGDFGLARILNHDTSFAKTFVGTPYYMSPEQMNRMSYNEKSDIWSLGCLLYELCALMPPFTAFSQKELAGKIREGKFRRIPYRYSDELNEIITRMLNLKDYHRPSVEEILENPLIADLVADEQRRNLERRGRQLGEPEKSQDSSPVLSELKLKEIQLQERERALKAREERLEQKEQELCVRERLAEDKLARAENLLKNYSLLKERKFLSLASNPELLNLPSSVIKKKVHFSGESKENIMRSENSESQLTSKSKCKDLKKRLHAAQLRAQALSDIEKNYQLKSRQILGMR

NEK6 (human) = NEK6 (human) (UniProt Q9HC98)
NTRK1 (human) = NTRK1 (human) (UniProt P04629)
NUAK1 (human) = NUAK1 (human) (UniProt O60285)
PAK4 (human) = PAK4 (human) (UniProt O96013)
PIM1 (human) = PIM1 (human) (UniProt P11309)
RPS6KA1 KD1 KD2 (human) = RPS6KA1 KD1 KD2 (human) (UniProt Q15418)
[2] = test system: RPS6KB1 (human), P23443 [T412E]
[3] = target: STK11 CAB39 STRADA (human) (UniProt Q9Y376+Q7RTN6+Q15831)
STK3 (human) = STK3 (human) (UniProt Q13188)
TBK1 (human) = TBK1 (human) (UniProt Q9UHD2)
TTK (human) = TTK (human) (UniProt P33981)

CSNK1D (human), sequence (P48730 whole entry, looked up): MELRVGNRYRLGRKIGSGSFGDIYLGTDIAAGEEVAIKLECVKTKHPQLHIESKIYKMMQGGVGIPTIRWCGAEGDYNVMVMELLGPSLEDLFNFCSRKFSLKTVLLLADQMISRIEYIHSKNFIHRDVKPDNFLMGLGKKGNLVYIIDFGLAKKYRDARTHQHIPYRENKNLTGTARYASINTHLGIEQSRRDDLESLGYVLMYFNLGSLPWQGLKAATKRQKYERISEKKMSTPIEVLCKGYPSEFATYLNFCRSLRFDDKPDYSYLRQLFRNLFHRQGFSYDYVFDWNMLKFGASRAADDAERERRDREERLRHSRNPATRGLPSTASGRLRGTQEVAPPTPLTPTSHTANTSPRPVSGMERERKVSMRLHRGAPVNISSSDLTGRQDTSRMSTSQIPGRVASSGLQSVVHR
EPHB2 (human), sequence (P29323 whole entry, looked up): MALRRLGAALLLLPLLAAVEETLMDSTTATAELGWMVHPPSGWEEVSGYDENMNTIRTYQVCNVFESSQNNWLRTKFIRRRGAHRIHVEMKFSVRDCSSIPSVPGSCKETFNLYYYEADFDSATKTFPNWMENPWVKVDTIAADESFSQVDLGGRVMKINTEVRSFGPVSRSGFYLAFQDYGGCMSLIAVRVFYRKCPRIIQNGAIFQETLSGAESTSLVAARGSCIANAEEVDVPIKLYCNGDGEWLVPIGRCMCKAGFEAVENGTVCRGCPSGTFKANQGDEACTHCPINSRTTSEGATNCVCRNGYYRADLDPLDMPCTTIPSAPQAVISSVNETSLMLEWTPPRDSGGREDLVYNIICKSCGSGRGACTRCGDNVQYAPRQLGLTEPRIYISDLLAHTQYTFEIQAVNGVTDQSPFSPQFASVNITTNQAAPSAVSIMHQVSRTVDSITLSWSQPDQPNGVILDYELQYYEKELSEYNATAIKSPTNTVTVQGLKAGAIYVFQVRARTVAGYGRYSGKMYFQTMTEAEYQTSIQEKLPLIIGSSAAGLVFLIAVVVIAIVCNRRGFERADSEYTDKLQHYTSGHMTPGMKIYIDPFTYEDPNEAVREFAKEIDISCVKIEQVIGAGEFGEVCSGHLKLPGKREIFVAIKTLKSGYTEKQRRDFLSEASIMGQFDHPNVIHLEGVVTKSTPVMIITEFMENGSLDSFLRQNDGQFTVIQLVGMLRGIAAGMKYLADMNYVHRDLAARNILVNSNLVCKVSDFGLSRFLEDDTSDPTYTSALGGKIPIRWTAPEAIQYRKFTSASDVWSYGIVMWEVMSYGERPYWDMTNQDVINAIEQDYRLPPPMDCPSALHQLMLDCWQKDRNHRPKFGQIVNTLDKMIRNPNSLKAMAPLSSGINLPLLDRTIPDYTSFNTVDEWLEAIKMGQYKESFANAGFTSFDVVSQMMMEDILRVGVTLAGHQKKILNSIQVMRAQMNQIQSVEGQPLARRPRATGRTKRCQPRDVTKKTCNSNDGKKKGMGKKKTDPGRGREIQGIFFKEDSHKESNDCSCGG
CHEK2 (human), sequence (O96017 whole entry, looked up): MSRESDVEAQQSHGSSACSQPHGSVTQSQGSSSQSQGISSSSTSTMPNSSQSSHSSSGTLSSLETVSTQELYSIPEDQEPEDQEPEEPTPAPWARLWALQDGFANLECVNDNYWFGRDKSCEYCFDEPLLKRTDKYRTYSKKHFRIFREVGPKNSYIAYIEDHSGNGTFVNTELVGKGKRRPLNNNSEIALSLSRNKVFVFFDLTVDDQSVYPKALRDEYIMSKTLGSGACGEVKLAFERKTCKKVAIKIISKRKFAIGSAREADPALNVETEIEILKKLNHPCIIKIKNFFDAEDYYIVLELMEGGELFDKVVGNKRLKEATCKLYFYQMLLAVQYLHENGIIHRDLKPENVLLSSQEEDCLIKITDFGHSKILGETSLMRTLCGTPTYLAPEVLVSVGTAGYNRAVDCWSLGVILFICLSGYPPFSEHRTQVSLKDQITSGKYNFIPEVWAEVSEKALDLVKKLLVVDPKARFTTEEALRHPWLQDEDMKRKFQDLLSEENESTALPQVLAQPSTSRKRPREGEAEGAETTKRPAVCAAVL

- residual activity ([1]; compound 0.1 µM): 79%
- residual activity ([1]; compound 1.0 µM): 97%
- residual activity ([1]; compound 10.0 µM): 78%
- residual activity (CHEK2 (human); compound 0.1 µM): 92%
- residual activity (CHEK2 (human); compound 1.0 µM): 77%
- residual activity (CHEK2 (human); compound 10.0 µM): 35%
- residual activity (CSNK1D (human); compound 0.1 µM): 98%
- residual activity (CSNK1D (human); compound 1.0 µM): 111%
- residual activity (CSNK1D (human); compound 10.0 µM): 115%
- residual activity (CaMK1 (human); compound 0.1 µM): 80%
- residual activity (CaMK1 (human); compound 1.0 µM): 99%
- residual activity (CaMK1 (human); compound 10.0 µM): 33%
- residual activity (DYRK1A (human); compound 0.1 µM): 112%
- residual activity (DYRK1A (human); compound 1.0 µM): 105%
- residual activity (DYRK1A (human); compound 10.0 µM): 87%
- residual activity (DYRK3 (human); compound 0.1 µM): 93%
- residual activity (DYRK3 (human); compound 1.0 µM): 86%
- residual activity (DYRK3 (human); compound 10.0 µM): 68%
- residual activity (EPHB2 (human); compound 0.1 µM): 102%
- residual activity (EPHB2 (human); compound 1.0 µM): 65%
- residual activity (EPHB2 (human); compound 10.0 µM): 11%
- residual activity (IKBKB (human); compound 0.1 µM): 94%
- residual activity (IKBKB (human); compound 1.0 µM): 107%
- residual activity (IKBKB (human); compound 10.0 µM): 90%
- residual activity (IKBKE (human); compound 0.1 µM): 100%
- residual activity (IKBKE (human); compound 1.0 µM): 95%
- residual activity (IKBKE (human); compound 10.0 µM): 66%
- residual activity (IRAK4 (human); compound 0.1 µM): 103%
- residual activity (IRAK4 (human); compound 1.0 µM): 102%
- residual activity (IRAK4 (human); compound 10.0 µM): 86%
- residual activity (JAK2 JH1 JH2 (human); compound 0.1 µM): 90%
- residual activity (JAK2 JH1 JH2 (human); compound 1.0 µM): 103%
- residual activity (JAK2 JH1 JH2 (human); compound 10.0 µM): 83%
- residual activity (MAP2K1 (human); compound 0.1 µM): 85%
- residual activity (MAP2K1 (human); compound 1.0 µM): 76%
- residual activity (MAP2K1 (human); compound 10.0 µM): 56%
- residual activity (MAP3K11 (human); compound 0.1 µM): 87%
- residual activity (MAP3K11 (human); compound 1.0 µM): 65%
- residual activity (MAP3K11 (human); compound 10.0 µM): 28%
- residual activity (MAPK14 (human); compound 0.1 µM): 99%
- residual activity (MAPK14 (human); compound 1.0 µM): 103%
- residual activity (MAPK14 (human); compound 10.0 µM): 101%
- residual activity (MAPK3 (human); compound 0.1 µM): 83%
- residual activity (MAPK3 (human); compound 10.0 µM): 84%
- residual activity (MAPK8 (human); compound 0.1 µM): 98%
- residual activity (MAPK8 (human); compound 1.0 µM): 98%
- residual activity (MAPK8 (human); compound 10.0 µM): 75%
- residual activity (MAPK9 (human); compound 0.1 µM): 89%
- residual activity (MAPK9 (human); compound 1.0 µM): 101%
- residual activity (MAPKAPK2 (human); compound 0.1 µM): 88%
- residual activity (MAPKAPK2 (human); compound 1.0 µM): 95%
- residual activity (MAPKAPK2 (human); compound 10.0 µM): 90%
- residual activity (MARK1 (human); compound 0.1 µM): 101%
- residual activity (MARK1 (human); compound 1.0 µM): 103%
- residual activity (MARK1 (human); compound 10.0 µM): 88%
- residual activity (MARK2 (human); compound 0.1 µM): 88%
- residual activity (MARK2 (human); compound 1.0 µM): 102%
- residual activity (MARK2 (human); compound 10.0 µM): 82%
- residual activity (MARK3 (human); compound 0.1 µM): 98%
- residual activity (MARK3 (human); compound 1.0 µM): 94%
- residual activity (MARK3 (human); compound 10.0 µM): 76%
- residual activity (MKNK1 (human); compound 0.1 µM): 91%
- residual activity (MKNK1 (human); compound 1.0 µM): 115%
- residual activity (MKNK1 (human); compound 10.0 µM): 84%
- residual activity (MKNK2 (human); compound 0.1 µM): 106%
- residual activity (MKNK2 (human); compound 10.0 µM): 67%
- residual activity (NEK2 (human); compound 0.1 µM): 93%
- residual activity (NEK2 (human); compound 1.0 µM): 107%
- residual activity (NEK2 (human); compound 10.0 µM): 35%
- residual activity (NEK6 (human); compound 0.1 µM): 76%
- residual activity (NEK6 (human); compound 1.0 µM): 99%
- residual activity (NEK6 (human); compound 10.0 µM): 93%
- residual activity (NTRK1 (human); compound 0.1 µM): 64%
- residual activity (NTRK1 (human); compound 1.0 µM): 46%
- residual activity (NTRK1 (human); compound 10.0 µM): 13%
- residual activity (NUAK1 (human); compound 0.1 µM): 99%
- residual activity (NUAK1 (human); compound 1.0 µM): 82%
- residual activity (NUAK1 (human); compound 10.0 µM): 26%
- residual activity (PAK4 (human); compound 0.1 µM): 93%
- residual activity (PAK4 (human); compound 1.0 µM): 85%
- residual activity (PAK4 (human); compound 10.0 µM): 42%
- residual activity (PIM1 (human); compound 0.1 µM): 98%
- residual activity (PIM1 (human); compound 1.0 µM): 95%
- residual activity (PIM1 (human); compound 10.0 µM): 81%
- residual activity (RPS6KA1 KD1 KD2 (human); compound 0.1 µM): 94%
- residual activity (RPS6KA1 KD1 KD2 (human); compound 1.0 µM): 101%
- residual activity (RPS6KA1 KD1 KD2 (human); compound 10.0 µM): 46%
- residual activity ([2]; compound 0.1 µM): 93%
- residual activity ([2]; compound 1.0 µM): 86%
- residual activity ([2]; compound 10.0 µM): 66%
- residual activity ([3]; compound 0.1 µM): 106%
- residual activity ([3]; compound 10.0 µM): 100%
- residual activity (STK3 (human); compound 0.1 µM): 88%
- residual activity (STK3 (human); compound 1.0 µM): 65%
- residual activity (STK3 (human); compound 10.0 µM): 41%
- residual activity (TBK1 (human); compound 0.1 µM): 102%
- residual activity (TBK1 (human); compound 1.0 µM): 113%
- residual activity (TBK1 (human); compound 10.0 µM): 90%
- residual activity (TTK (human); compound 0.1 µM): 95%
- residual activity (TTK (human); compound 1.0 µM): 101%
- residual activity (TTK (human); compound 10.0 µM): 82%
SMILES: C=CC(=O)N1CCC[C@@H](n2nc(-c3ccc(Oc4ccccc4)cc3)c3c(N)ncnc32)C1
